A short description of series [1]: Toxic side effects by body weights of LLC mice. The conditions noted are these: CDDP alone 4 mg/kg; after fifteen days from inoculation. Type of series: in vivo, C57B1/6 mice. The protocol:
LLC cells were resuspended in sterile PBS (10^6 cells/0.2 ml) and implanted in C57B1/6 mice. After a period of 11 days, primary tumors reached an average volume of 1.0 cm^3 and were surgically resected. After surgery, mice were randomized into groups of 15 animals and control article (saline) and cartilage extract were administered on a daily basis via oral gavage at the dose levels indicated for a period of 15 days. At day 16-post-surgery, animals were sacrificed, the lungs fixed in 10% […] and the number of lung metastases counted. Animals were always kept under controlled environment: temperature 22° C., humidity 40% to 50%, light/dark cycle: 12 hours. They were fed and given water ad libitum. The toxic side effects were evaluated by measuring the body weights. The results are illustrated in FIG. 2. During the first week of treatment, the body weights increased in all groups. Treatment started on Day 12 of the protocol. The decrease in body weight observed between the second and the third time point of the graph results from the surgery (on day 11) necessary to remove the primary LLC tumor mass. After fifteen days from inoculation, it was observed that CDDP alone was very toxic since a decrease of about 16% of body weight occurred in comparison to the non-treated group.

A further series relates to LLC lung metastasis. The series is described as follows: Lewis lung carcinoma model (LLC), number of lung metastases. The settings on record: for Percent reduction from control (lung metastases): first experiment. In kind it is in vivo, C57B1/6 mice. The protocol:
We have verified the anti-tumor efficacy and the protective effect of cartilage extract by testing a combination of diverse concentrations of cartilage liquid extract alone and in combination with cisplatin (CDDP), in the Lewis lung carcinoma model (LLC). LLC cells were resuspended in sterile PBS (10^6 cells/0.2 ml) and implanted in C57B1/6 mice. After a period of 11 days, primary tumors reached an average volume of 1.0 cm^3 and were surgically resected. After surgery, mice were randomized into groups of 15 animals and control article (saline) and cartilage extract were administered on a daily basis via oral gavage at the dose levels indicated for a period of 15 days. At day 16-post-surgery, animals were sacrificed, the lungs fixed in 10% […] and the number of lung metastases counted. Animals were always kept under controlled environment: temperature 22° C., humidity 40% to 50%, light/dark cycle: 12 hours. They were fed and given water ad libitum. In a first experiment, five injections of CDDP were given intraperitoneally every three days (1, 2 and 3 mg/Kg). Cartilage extract was given per as daily (31, 125 and 500 mg/Kg). Saline was given as a control. In a second independent experiment, CDDP was given at a dose of 4 mg/kg. Cartilage extract was given at doses 75, 150 and 500 mg/kg. Saline was given again as a control. Administration of CDDP alone reduced the number of metastases by about 71%.

Series [2] concerns peripheral white blood cells. The series is described as follows: Number of peripheral white blood cells in normal mice. In kind it is in vivo. The conditions noted are these: for Number of white blood cells: day 15. On the procedure:
Toxicity was evaluated in cancerous animals by the body weight decrease. We further characterized the nature of the protective effect provided by the cartilage extract by assessing an hematology parameter namely the number of peripheral white blood cells. Normal mice were injected (l.P.) with CDDP (3 and 4 mg/kg) on days 1, 4, 7, 10 and 13 of the experimental protocol. The cartilage extract was administered, orally, at doses of 75, 150 and 500 mg/kg/day. Animals were sacrificed on day 15 and blood samples were collected for cell count using an automated blood cell analyzer. Groups consisted of animals receiving CDDP alone, the cartilage extract alone, both in combination or saline as negative control. […] Values obtained from individual groups that have received cartilage extract were pooled to increase statistical power. Mean white blood cell counts were plotted according to treatment group regimen (FIG. 3). A linear trend indicated a clear monotonic trend (r^2=0.9126) for as decrease in cell counts according to treatment regimen stringency. This observation is in agreement with a protective effect of the cartilage extract relative to the peripheral white blood cell population reduced during CDDP administration.

For the compound `[NH2][Pt]([NH2])([Cl])[Cl]` [CDDP, cisplatin], the “decrease of body weight in comparison to the non-treated group” value in series [1] was “about 16%”. Further, the “Percent reduction from control (lung metastases)” value in the series on LLC lung metastasis (CDDP 1 mg/kg i.p., alone) came out at 19%; in the series on LLC lung metastasis (CDDP 2 mg/kg i.p., alone), 35%; in the series on LLC lung metastasis (CDDP 3 mg/kg i.p. every three days x5, alone), 54%. Besides, the “reduction of the number of metastases” value with LLC lung metastasis (CDDP alone 4 mg/kg, second independent experiment) is listed as “about 71%”. Further, the decrease in metastases in the series with LLC lung metastasis (CDDP alone at 5 mg/kg (data not shown), stated equivalent to the 500 mg/kg/day + 3 mg combination) is given as approximately 85%. Also, the “Number of white blood cells” value is 3.4e+09 L⁻¹ in series [2] (CDDP 3 mg/kg i.p. days 1, 4, 7, 10, 13) and 3.3e+09 L⁻¹ in series [2] (CDDP 4 mg/kg i.p. days 1, 4, 7, 10, 13). Besides, in series [2] (CDDP 3 and 4 mg/kg alone), the “effect on number of white blood cells” value is on record as “significant decrease of the number of white blood cells”.
